Measurements published in patent US20090011974A1, “Scavenger Receptor B1 (Cla-1) Targeting for the Treatment of Infection, Sepsis and Inflammation” (priority 2002, published 2009).
Where two headings read alike, the source gives them in different places. Where no end group is shown, it is not given here. [ ]: non-standard residue; d: D form.

Experiments:
[1] = tested on: ABCA1; experiment: RT-PCR of ABCA1 mRNA in RAW cells exposed to LPS preparations; format: cell-based, mouse; conditions: inhibitor 20 mM added 2 h before LPS 10 ng/ml, 24 h
Description: (§1) Cell culture and treatment.
(§2) RNA isolation and cDNA preparation. The total RNA of cultured cells is isolated and purified using Trizol reagent (Gibco BRL, Grand Island, N.Y.) according to the manufacturer's protocol. The concentration and quality of RNA were determined by UV absorbance at 260 and 280 nm. To prepare cDNA, total RNA (3 μg) is added to a mixture containing the following: 6 μl of 5× first-strand buffer (75 mM KCl, 50 mM Tris-HCl [pH 8.3], 3 mM MgCl2), 1.5 μl of deoxynucleoside triphosphates (10 mM [each] dATP, dCTP, dTTP, and dGTP), 1.5 μl of 0.0156 U (0.4 μg) of random hexamers, and 0.2 U of Moloney murine leukemia virus reverse transcriptase (all from Gibco BRL, Gaithersburg, Md.); 0.004 U of RNasin (Promega, Madison, Wis.); and RNase-free water to a final volume of 30 μl per 3 μg of cDNA. Samples are incubated at 37° C. for 60 min. Preliminary experiments are undertaken to achieve optimal conditions for amplifying mRNA for each of the gene products.
(§3) Reverse transcription-PCR (RT-PCR). […]
(§4) For the densitometry analysis, the intensities of the bands are measured with the Gel-Pro Analyzer 3.0 computer program and normalized with GADPH intensity.

[2] = tested on: IL-1β; experiment: RT-PCR of IL-1β mRNA in RAW cells exposed to LPS preparations; format: cell-based, mouse; conditions: 24 h
Description: as §1, §2, §3, §4

[3] = tested on: SR-BI/CLA-1; format: cell-based, mouse; conditions: 24 h; for activity as modulator of SR-BI, ABCA1 and IL-1β gene expression compared with other LPS preparations / relative activities for the suppressive effect on SR-BI/CLA-1 and ABCA1 expression and SR-BI/CLA-1 protein expression: 10 ng/ml, RAW cells
Description: as §1, §2
Reverse transcription-PCR (RT-PCR). A mixture of 37.2 μl of RNase-free water, 5 μl of 10× reaction buffer, and 0.5 μl (5 U) of AmpliTaq Gold DNA polymerase (Applied Biosystems, Roche Molecular Systems, Inc., Branchburg, N.J.), sense and antisense primers (1 μl each), and 0.3 μl (3 μCi) of [α-^32P]dCTP (Amersham Pharmacia Biotech, San Diego, Calif.) is vortexed, and 46 μl is aliquoted into each tube, containing 4 μl of cDNA, and overlaid with 50 μl of mineral oil (Sigma Chemical Co.). cDNA is amplified in a Perkin-Elmer (Norwalk, Conn.) System 2400 DNA thermal cycler, with denaturation for 1 min at 94° C., annealing for 1 min at 50° C., and extension for 2 min at 72° C. for GADPH (glyceraldehyde-3-phosphate dehydrogenase) (19 cycles), ABCA1 (28 cycles), SR-BI/CLA-1, and interleukin-1 [3 (IL-1β (27 cycles). The primers used in these analyses are as follows: GADPH, (SEQ ID NO:1) 5′-[…]-3′ and (SEQ ID NO:2) 5′-[…]-3′; SR-BI/CLA-1, (SEQ ID NO:3) 5′-CCA […] GGC TTC TGC-3′ and (SEQ ID NO:4) 5′-CTG AAT GGC CTC CTT ATC C-3′; ABCA1, (SEQ ID NO:5) 5′-CAACTACAAAGCCCTCTTTG-3′ and (SEQ ID NO:6) 5′-CTTGGCTGTTCTCCATGAAG-3′; and IL-1β, (SEQ ID NO:7) 5′-CTG AAA GCT CTC CAC CTC-3′ and (SEQ ID NO:8) 5′-GTG CTG ATG TAC CAG TTG-3′.
as §4

[4] = tested on: THP-1 cells; experiment: TNFα-induced IL-6 and IL-8 secretion in THP-1 cells; format: cell-based, human
From the text: (§5) Assays for cytokines and lactate dehydrogenase (LD).

[5] = molecular target: T1, CLA-1 (Homo sapiens, UniProt Q8WTV0); format: binding; conditions: for competition of unlabelled ligands against 125I-LPS (0111:B4): 100× excess unlabeled ligand, CLA-1 overexpressing and mock-transfected cells
T1 construct: using the expression plasmid pTRE2 (Clontech, Pal Alto, Calif.), encoding a CLA-1 protein (pTRE2-CLA-1); expressed in transfected cells; host or cells: HeLa (Tet-off) cells (Clontech), stably co-transfected with pTRE2-CLA-1 and pTK-Hyg and selected with hygromycin
T1 sequence (Q8WTV0 1-509 isoform Q8WTV0-2): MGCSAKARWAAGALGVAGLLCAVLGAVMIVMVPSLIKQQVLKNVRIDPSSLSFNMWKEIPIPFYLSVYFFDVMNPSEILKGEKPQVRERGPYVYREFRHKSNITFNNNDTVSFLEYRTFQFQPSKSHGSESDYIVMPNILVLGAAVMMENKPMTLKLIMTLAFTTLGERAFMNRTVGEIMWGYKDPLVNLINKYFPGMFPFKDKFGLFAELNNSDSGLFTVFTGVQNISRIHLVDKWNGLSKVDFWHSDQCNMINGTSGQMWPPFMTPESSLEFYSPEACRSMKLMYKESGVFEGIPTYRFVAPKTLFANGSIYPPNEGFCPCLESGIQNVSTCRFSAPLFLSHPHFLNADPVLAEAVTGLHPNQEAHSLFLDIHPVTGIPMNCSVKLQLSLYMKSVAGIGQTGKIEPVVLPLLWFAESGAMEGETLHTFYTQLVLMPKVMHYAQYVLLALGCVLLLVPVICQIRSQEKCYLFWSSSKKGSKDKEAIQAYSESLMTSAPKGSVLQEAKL
Description: The lipopolysaccharide 0111:B4 (Sigma) is iodinated as reported by Ulevitch, R J. (1978) (“THE PREPARATION AND CHARACTERIZATION OF A RADIO IODINATED BACTERIAL LIPOPOLYSACCHARIDE,” Immunochemistry 15:157-164). […] After a 2-hr-incubation on ice, the cells are rinsed with ice-cold HBSS and utilized for radioactivity measurements as reported by Bocharov, A. V. et al. (2001) (“CHARACTERIZATION OF A 95 KDA HIGH AFFINITY HUMAN HIGH DENSITY LIPOPROTEIN-BINDING PROTEIN,” Biochemistry 40:4407-4416). Specific binding is determined as the difference between total and non-specific binding, and normalized by protein content.
HeLa cells grown until 70% confluence in DMEM with 10% FCS are washed with PBS and cultured for 24 hr in serum-free DMEM. […] After washing with ice-cold PBS, the cells are hydrolyzed in 1 N NaOH. Radioactivity is counted in an LKB Wallac Ultragamma counter.

[6] = Limulus amebocyte lysate (LAL) assay for LPS incubated with peptides; conditions: RPMI-1640 1% FCS or DPBS; 10 ng/ml LPS, 10 μg/ml peptide, 37° C., 24 h
From the text: Limulus Amebocyte Lysate (LAL) Assay for LPS.
Limulus amebocyte lysate (LAL) assay for LPS.

[7] = tested on: THP-1 cells; experiment: LPS-stimulated cytokine production in THP-1 cells (ELISA); format: cell-based, human; conditions: 10 ng/ml LPS, 24 h
Description: (§6) THP-1 and CLA-1 overexpressing HeLa cells. Human monocyte-macrophages, THP-1 (ATCC [American Type Culture Collection] TIB 71), are grown in 48-well plates in RPMI 1640 medium supplemented with 10% fetal calf serum (FCS), penicillin (100 U/ml), and streptomycin (100 μg/ml). All experiments involving LPS-induced interleukin production utilize the same media except that 1% FCS was used. Hela cells were cultured as previously reported (Vishnyakova, T. G. et al. (2003) “BINDING AND INTERNALIZATION OF LIPOPOLY[…] CLA-1, A HUMAN ORTHOLOGUE OF RODENT […] RECEPTOR B1,” J. Biol. Chem 278:22771-22780).
Assays for cytokines and lactate dehydrogenase (LD). […]

[8] = tested on: THP-1 cells; experiment: LTA, Gro-EL and HSP60 stimulated IL-8/IL-6 production in THP-1 cells; format: cell-based, human; conditions: 1 μg/ml LTA or Gro-EL, 10-200 fold excess of peptide
Description: as §6, §5

[9] = tested on: SR-BI/CLA-1; experiment: Competition for 125I-HDL binding sites in RAW cells; parameters: species or system mouse; conditions: 50 μg/ml LPS analogs
Description: Competition Binding Experiments. RAW cells are cultured for 24 hr in serum free DMEM before experiment. […] Cell radioactivity is measured as described in the “LPS-binding assay” section.

[10] = molecular target: T1, CLA-1; experiment: 125I-HDL binding and HDL-CE uptake in CLA-1 stably transfected HeLa cells
Description: CLA-1 Overexpression HeLa cells. HeLa (Tet-off) cells (Clontech, Pal Alto, Calif.) are grown in DMEM (Invitrogen), supplemented with 10% fetal calf serum, 2 mM glutamine, 100 IU/ml of penicillin, 100 μg/ml of streptomycin, and 100 μg/ml of G418. Cells were transfected with FuGENE-6 (Roche Diagnostics), using the expression plasmid pTRE2 (Clontech, Pal Alto, Calif.), encoding a CLA-1 protein (pTRE2-CLA-1). Cells were co-transfected with pTRE2-CLA-1 and pTK-Hyg (Clontech, Pal Alto, Calif.), using a 1:20 ratio, and selected with 400 μg/ml of hygromycin. Hygromycin resistant cells were screened for the expression of the CLA-1 protein by utilizing rabbit anti-SR-BI/CLA-1 (Novus Biological, Inc) by Western blotting.
HDL-Binding And Cholesteryl Oleoyl Uptake Assays. Saturation binding experiments are performed at 4° C. using ^125I-HDL concentrations between 1.25 and 40 μg/ml. […] After a 2 hr-incubation on ice, specific binding is determined as reported by Bocharov, A. V. et al. (2001) (“CHARACTERIZATION OF A 95 KDA HIGH AFFINITY HUMAN HIGH DENSITY LIPOPROTEIN-BINDING PROTEIN,” Biochemistry 40:4407-4416).
HDL-[^3H]CE uptake experiments are performed in a serum free DMEM containing 0.2% BSA. […] Specific uptake is determined as the difference between total and nonspecific uptake.

[11] = molecular target: T2, CLA-1 (CD36 and LIMPII Analogous-1), human scavenger receptor class B type I (human, UniProt Q8WTV0 1-552); experiment: confocal microscopy of Alexa 568-labelled peptide uptake, CLA-1 HeLa against mock HeLa
T2 construct: whole, on cells; Target is CLA-1 on stably transfected HeLa cells, compared with mock-transfected HeLa cells, which carry a low endogenous level of CLA-1; also called SR-BI/CLA-1; human SR-BI
T2 sequence (looked up): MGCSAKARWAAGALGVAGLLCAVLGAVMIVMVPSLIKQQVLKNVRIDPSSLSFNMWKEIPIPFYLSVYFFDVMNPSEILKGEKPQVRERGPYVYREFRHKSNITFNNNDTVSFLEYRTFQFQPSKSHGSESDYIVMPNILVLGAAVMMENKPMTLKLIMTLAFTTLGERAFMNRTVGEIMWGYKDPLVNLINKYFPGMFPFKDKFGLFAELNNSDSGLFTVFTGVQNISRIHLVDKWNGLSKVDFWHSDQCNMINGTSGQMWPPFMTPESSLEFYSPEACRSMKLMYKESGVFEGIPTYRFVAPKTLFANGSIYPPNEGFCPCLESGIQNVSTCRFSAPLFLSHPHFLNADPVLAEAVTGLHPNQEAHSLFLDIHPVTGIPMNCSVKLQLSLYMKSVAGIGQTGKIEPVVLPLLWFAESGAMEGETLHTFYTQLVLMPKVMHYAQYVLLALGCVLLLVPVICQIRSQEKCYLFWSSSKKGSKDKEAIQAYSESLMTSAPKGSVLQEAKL

[12] = inhibitor 20 mM added 2 h before LPS 10 ng/ml

Molecule: Cc1ccc(S(=O)(=O)N[C@@H](Cc2ccccc2)C(=O)CCl)cc1 [TPCK, tosylphenyl chloromethyl ketone]
- effect on LPS-induced ABCA1 mRNA level decrease [1]: effectively prevented
- effect on LPS-induced increase of IL-1β mRNA [2, 12]: effectively prevented
- effect on LPS-induced SR-BI/CLA-1 mRNA level decrease [3, 12]: effectively prevented

Molecule: DWLKAFYDKVAEKLKEAF-P-DWLKAFYDKVAEKLKEAF [D-37PA] ([dD][dW][dL][dK][dA][dF][dY][dD][dK][dV][dA][dE][dK][dL][dK][dE][dA][dF][dP][dD][dW][dL][dK][dA][dF][dY][dD][dK][dV][dA][dE][dK][dL][dK][dE][dA][dF]) [Peptide D-37PA]
- effect on TNFα-induced IL-6 and IL-8 production [4]: neither peptides was effective in blocking
- competition against 125I-LPS ([5]; 1 μg/ml 125I-LPS, mock transfected and CLA-1 overexpressing HeLa cells): competed in a dose-dependent manner
- effect on LAL activity of LPS in media containing bivalent cations [6]: neither L-37PA nor D-37PA affected LPS's endotoxin activity
- effect on LPS-stimulated cytokine (IL-8, IL-6, TNF-α) production [7]: similarly effective in a blocking
- effect on LTA and Gro-EL stimulated IL-8 and IL-6 production [8]: similarly effective in blocking

Molecule: diphosphoryllipid A [DPLA]
- decrease of 125I-HDL-binding by forms of LPS [9]: similarly decreased
- activity as modulator of SR-BI, ABCA1 and IL-1β gene expression compared with other LPS preparations [3]: the same activity as the complete form of LPS from E. coli
- relative activities for the suppressive effect on SR-BI/CLA-1 and ABCA1 expression and SR-BI/CLA-1 protein expression [3]: LPS (Re595)>LPS (0111:B4)>DPLA>MPLA
- competition of unlabelled ligands against 125I-LPS (0111:B4) [5]: compete against iodinated LPS in both cell lines

Molecule: lipid A
- competition for 125I-HDL-binding to CLA-1 overexpressing human HeLa cells [10]: all competed

Molecule: monophosphoryllipid A [MPLA]
- potency for IL-1β gene induction relative to Re595 LPS or DPLA ([2]; 10 ng/ml, RAW cells): approximately one-half
- activity as modulator of SR-BI, ABCA1 and IL-1β gene expression compared with other LPS preparations [3]: decreased activity compared to the other LPS derivatives
- relative activities for the suppressive effect on SR-BI/CLA-1 and ABCA1 expression and SR-BI/CLA-1 protein expression [3]: LPS (Re595)>LPS (0111:B4)>DPLA>MPLA
- activity as modulator of SR-BI, ABCA1 and IL-1β gene expression compared with other LPS preparations ([3]; listed as Re595 MPLA): less potent modulator
- competition of unlabelled ligands against 125I-LPS (0111:B4) [5]: compete against iodinated LPS in both cell lines

B1: 18A (peptide)
peptide: DWLKAFYDKVAEKLKEAF
notes: Synthetic single class A amphipathic helix; also called 18PA; L18PA
- binding result [11]: no binding
